In brackets after ≈: the same amount, converted by molar mass. Values belong to the compound of their own block, whether it stands above or below them.
What was measured:
[1] = Half life in calf; type: ADME, Bos taurus; conditions: cattle
[2] = Aqueous solubility of compound; type: physicochemical; conditions: buffer
[3] = Stability of compound assessed as half life at pH 2; type: physicochemical; conditions: buffer
[4] = AUC in rat at 5 mg/kg, po; type: ADME, organism-based; set-up: dose 5 mg/kg, route po; conditions: in vivo
P-glycoprotein = test: Efflux ratio of apparent permeability across basal to apical membrane over apical to basal membrane in human Caco-2 cells in absence of P-glycoprotein; type: ADME, cell-based
[5] = Metabolic stability in rat liver microsome assessed as half life […]; type: ADME; conditions: liver microsomes
[6] = Metabolic stability in rat plasma assessed as half life at 0.2 mg/kg, po; type: ADME
[7] = Efflux ratio of apparent permeability across apical to basolateral to basolateral to apical side in MDCK1 cells; type: ADME, cell-based
CEM-SS = test: Cytotoxicity against human CEM-SS cells assessed as inhibition of cell growth; type: functional
[8] = Metabolic stability in rat liver microsome assessed as compound remaining measured after 2 hrs; type: ADME; conditions: microsomes
[9] = Metabolic stability in rat liver microsome assessed as compound remaining measured after 4 hrs; type: ADME; conditions: microsomes
[10] = target: T1, Peptidyl-prolyl cis-trans isomerase FKBP1A (Homo sapiens, UniProt P62942); test: Inhibition of FKBP12 (unknown origin) measured for 6 hrs relative to control; conditions: concentration not given here
T1 sequence (P62942 whole entry): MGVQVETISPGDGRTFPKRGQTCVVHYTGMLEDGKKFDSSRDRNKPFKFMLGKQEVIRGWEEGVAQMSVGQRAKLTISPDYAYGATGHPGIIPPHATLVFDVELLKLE

[11] = Half life in mouse plasma at 10 mg/kg, ip measured after 3 hrs; type: ADME, organism-based
[12] = target: Human immunodeficiency virus type 1 protease (Human immunodeficiency virus 1, UniProt Q72874); test: Inhibition of HIV-1 protease by FRET-based assay
[13] = Oral bioavailability in rat at 3 mg/kg; type: ADME, organism-based; conditions: in vivo
[14] = Efflux ratio of apparent permeability across basal to apical membrane over apical to basal membrane in human Caco-2 cells; type: ADME, cell-based
[15] = Solubility of compound at pH at 1 to 8; type: physicochemical
[16] = target: T1, Peptidyl-prolyl cis-trans isomerase FKBP1A; test: Inhibition of FKBP12 (unknown origin)
[17] = Half life in mouse plasma at 10 mg/kg, ip measured after 12 hrs; type: ADME, organism-based
[18] = Drug uptake in dog MDCK-MDR1 cells; type: ADME, cell-based, Canis lupus familiaris
[19] = Chemical stability of compound in PBS buffer at pH 4 assessed as half life measured for 24 hrs; type: physicochemical
[20] = Chemical stability of compound in PBS buffer at pH 7.4 assessed as half life measured for 24 hrs; type: physicochemical
[21] = Equilibrium solubility of compound; type: physicochemical
[22] = Solubility of compound at pH at 7; type: physicochemical; conditions: pH 7
[23] = Solubility of compound at pH at 3 to 4; type: physicochemical
[24] = Solubility of compound at pH at 3; type: physicochemical; conditions: pH 3
[25] = Stability of compound in PBS buffer at pH 7.4 assessed as half life; type: physicochemical
[26] = Prodrug conversion in human serum at 50 uM using glycylprolyl-para-nitroanilide as substrate measured for 1 hr relative to control; type: ADME, cell-free
[27] = Prodrug conversion in human serum at 50 uM using glycylprolyl-para-nitroanilide as substrate measured for 4 hrs relative to control; type: ADME, cell-free
[28] = Stability of compound in DPBS buffer at pH 7.4 assessed as half life measured for 48 hrs; type: physicochemical
[29] = Stability of compound in human Caco-2 cells assessed as half life measured for 48 hrs; type: ADME, cell-based

SMILES: CC(C)c1nc(CN(C)C(=O)N[C@H](C(=O)N[C@@H](Cc2ccccc2)C[C@H](OC(OP(=O)([O-])[O-])C(C)C)[C@H](Cc2ccccc2)NC(=O)OCc2cncs2)C(C)C)cs1.[Na+].[Na+] (stereo not given in full)
half-life [1]: > 0.5 h

SMILES: CC(C)[C@H](N)C(=O)N[C@H](C(=O)O[C@H](CN1C[C@H]2CCCC[C@H]2C[C@H]1C(=O)NC(C)(C)C)[C@H](Cc1ccccc1)NC(=O)[C@H](CC(N)=O)NC(=O)c1ccc2ccccc2n1)C(C)C
efflux ratio (P-glycoprotein): 1.2
half-life [5]: 1.48 h
half-life [6]: 7.8 h
Ratio [7]: 2.1

SMILES: CC(C)[C@H](N)C(=O)N[C@@H](C(=O)O[C@H](CN1C[C@H]2CCCC[C@H]2C[C@H]1C(=O)NC(C)(C)C)[C@H](Cc1ccccc1)NC(=O)[C@H](CC(N)=O)NC(=O)c1ccc2ccccc2n1)C(C)C
efflux ratio (P-glycoprotein): 1.2
half-life [5]: 2.97 h

SMILES: CCCCCCCCCCCCCCCC(=O)OCC(COC(=O)CCCCCCCCCCCCCCC)OC(=O)CCC(=O)O[C@H](CN1C[C@H]2CCCC[C@H]2C[C@H]1C(=O)NC(C)(C)C)[C@H](Cc1ccccc1)NC(=O)[C@H](CC(N)=O)NC(=O)c1ccc2ccccc2n1
CC50 (CEM-SS): > 100000 nM

SMILES: Cc1cccc(C)c1OCC(=O)N[C@@H](Cc1ccccc1)[C@H](C[C@H](Cc1ccccc1)NC(=O)[C@H](C(C)C)N1CCCNC1=O)OC(=O)[C@@H](NC(=O)CN)C(C)C
Stability [8]: 26%
Stability [9]: 46%

SMILES: CC(C)c1nc(CN(C)C(=O)N[C@H](C(=O)N[C@@H](Cc2ccccc2)C[C@H](OCOP(=O)([O-])[O-])[C@H](Cc2ccccc2)NC(=O)OCc2cncs2)C(C)C)cs1.[Na+].[Na+]
solubility [2]: > 5000 µg/mL
half-life [1]: 0.117 h
AUC [4]: 460 ng·h/mL

SMILES: COc1ccc(S(=O)(=O)N(CC(C)C)C[C@@H](O)[C@H](Cc2ccccc2)NC(=O)O[C@H]2CCOC2)cc1
inhibition [10]: 100%
half-life [11]: 0.5 h
IC50 [12]: 4.2 nM

SMILES: CC(C)[C@H](N)C(=O)O[C@@H]1Cc2ccccc2[C@@H]1NC(=O)[C@H](Cc1ccccc1)C[C@H](O)CN1CCN(Cc2cccnc2)C[C@H]1C(=O)NC(C)(C)C
bioavailability [13]: 32%

SMILES: CCCCCCCCCCCCCCCC(=O)OCC(COC(=O)CCCCCCCCCCCCCCC)OC(=O)CCC(=O)O[C@@H](C[C@@H](Cc1ccccc1)C(=O)N[C@H]1c2ccccc2C[C@H]1O)CN1CCN(Cc2cccnc2)C[C@H]1C(=O)NC(C)(C)C
CC50 (CEM-SS): > 100000 nM

SMILES: CCCCCCCC/C=C\CCCCCCCC(=O)OCC(COC(=O)CCCCCCC/C=C\CCCCCCCC)OC(=O)CCC(=O)O[C@@H](C[C@@H](Cc1ccccc1)C(=O)N[C@H]1c2ccccc2C[C@H]1O)CN1CCN(Cc2cccnc2)C[C@H]1C(=O)NC(C)(C)C
CC50 (CEM-SS): > 100000 nM

SMILES: CC(O[C@@H](C[C@H](Cc1ccccc1)NC(=O)[C@@H](NC(=O)N(C)Cc1csc(C(C)C)n1)C(C)C)[C@H](Cc1ccccc1)NC(=O)OCc1cncs1)OP(=O)([O-])[O-].[Na+].[Na+] (stereo not given in full)
solubility [2]: > 5000 µg/mL
half-life [3]: < 0.25 h
AUC [4]: 630 ng·h/mL

SMILES: CCC(C)(C)C(=O)C(=O)N1CCCCC1C(=O)OC(CCc1ccc(OC)c(OC)c1)c1cccc(NC(=O)CCC(=O)N[C@@H](Cc2ccccc2)[C@H](O)CN(CC(C)C)S(=O)(=O)c2ccc(OC)cc2)c1 (stereo not given in full)
IC50 [16]: 11.8 nM
inhibition [10]: 100%
half-life [17]: > 9 h
IC50 [12]: 9.8 nM

SMILES: CC(C)(C)NC(=O)[C@@H]1C[C@@H]2CCCC[C@@H]2CN1C[C@@H](OC(=O)CCCC[C@@H]1SC[C@@H]2NC(=O)N[C@@H]21)[C@H](Cc1ccccc1)NC(=O)[C@H](CC(N)=O)NC(=O)c1ccc2ccccc2n1
Drug uptake [18]: 72%

SMILES: CC(C)[C@H](NC(=O)CN)C(=O)O[C@H](CN1C[C@H]2CCCC[C@H]2C[C@H]1C(=O)NC(C)(C)C)[C@H](Cc1ccccc1)NC(=O)[C@H](CC(N)=O)NC(=O)c1ccc2ccccc2n1
Ratio [7]: 2.1

SMILES: CCCC(O[C@@H](C[C@H](Cc1ccccc1)NC(=O)[C@@H](NC(=O)N(C)Cc1csc(C(C)C)n1)C(C)C)[C@H](Cc1ccccc1)NC(=O)OCc1cncs1)OP(=O)([O-])[O-].[Na+].[Na+] (stereo not given in full)
AUC [4]: 450 ng·h/mL

SMILES: CC(C)(C)NC(=O)[C@@H]1CN(Cc2cccnc2)CCN1C[C@@H](O)C[C@@H](Cc1ccccc1)C(=O)N[C@H]1c2ccccc2C[C@H]1O.O
bioavailability [13]: 76%

SMILES: CCCCCCCC/C=C\CCCCCCCC(=O)OCC(COC(=O)CCCCCCC/C=C\CCCCCCCC)OC(=O)CCC(=O)O[C@H](CN1C[C@H]2CCCC[C@H]2C[C@H]1C(=O)NC(C)(C)C)[C@H](Cc1ccccc1)NC(=O)[C@H](CC(N)=O)NC(=O)c1ccc2ccccc2n1
CC50 (CEM-SS): > 100000 nM

SMILES: Cc1cccc(C)c1OCC(=O)N[C@@H](Cc1ccccc1)[C@H](C[C@H](Cc1ccccc1)NC(=O)[C@H](C(C)C)N1CCCNC1=O)OC(=O)[C@@H](NC(=O)[C@@H](N)C(C)C)C(C)C
Stability [8]: 10%
Stability [9]: 46%

SMILES: COc1ccc(S(=O)(=O)N(CC(C)C)C[C@@H](O)[C@H](Cc2ccccc2)NC(=O)CCC(=O)O)cc1
IC50 [12]: 11.8 nM

SMILES: CC(C)(C)NC(=O)[C@@H]1C[C@@H]2CCCC[C@@H]2CN1C[C@@H](OC(=O)CCC(=O)OCC(O)C1OC(=O)C(O)=C1O)[C@H](Cc1ccccc1)NC(=O)[C@H](CC(N)=O)NC(=O)c1ccc2ccccc2n1 (stereo not given in full)
half-life [28]: 9.65 h
half-life [29]: 5.73 h

Further lines, results first:

solubility [2]: > 5000 µg/mL
half-life [3]: < 0.25 h
AUC [4]: 9530 ng·h/mL
SMILES: Cc1cccc(C)c1OCC(=O)N[C@@H](Cc1ccccc1)[C@H](C[C@H](Cc1ccccc1)NC(=O)[C@H](C(C)C)N1CCCNC1=O)OC(C)OP(=O)([O-])[O-].[Na+].[Na+] (stereo not given in full)

efflux ratio [14]: 12
SMILES: COC(=O)N[C@H](C(=O)N[C@@H](Cc1ccccc1)[C@@H](O)CN(Cc1ccc(-c2ccccn2)cc1)NC(=O)[C@@H](NC(=O)OC)C(C)(C)C)C(C)(C)C [ATAZANAVIR]

solubility [15]: > 3000 µg/mL
SMILES: CC(C)CN(C[C@@H](OP(=O)(O)O)[C@H](Cc1ccccc1)NC(=O)O[C@H]1CCOC1)S(=O)(=O)c1ccc(N)cc1 [FOSAMPRENAVIR]

solubility [15]: > 3000 µg/mL
SMILES: CC(C)CN(C[C@@H](OP(=O)([O-])[O-])[C@H](Cc1ccccc1)NC(=O)O[C@H]1CCOC1)S(=O)(=O)c1ccc(N)cc1.[Na+].[Na+] [FOSAMPRENAVIR SODIUM]

solubility [2]: > 5000 µg/mL
AUC [4]: 19650 ng·h/mL
SMILES: Cc1cccc(C)c1OCC(=O)N[C@@H](Cc1ccccc1)[C@H](C[C@H](Cc1ccccc1)NC(=O)[C@H](C(C)C)N1CCCNC1=O)OCOP(=O)([O-])[O-].[Na+].[Na+]

Stability [8]: 5%
half-life [19]: 101 h
half-life [20]: 5.4 h
solubility [2]: 7 µg/mL (≈ 11.1 µM)
SMILES: Cc1cccc(C)c1OCC(=O)N[C@@H](Cc1ccccc1)[C@@H](O)C[C@H](Cc1ccccc1)NC(=O)[C@H](C(C)C)N1CCCNC1=O [LOPINAVIR]

solubility thermodynamic [21]: 160 µM (≈ 80.9 µg/mL)
SMILES: CC(C)CN(C[C@@H](O)[C@H](Cc1ccccc1)NC(=O)O[C@H]1CCOC1)S(=O)(=O)c1ccc(N)cc1

efflux ratio (P-glycoprotein): 1.2
half-life [5]: 0.783 h
SMILES: CC(C)[C@H](N)C(=O)O[C@H](CN1C[C@H]2CCCC[C@H]2C[C@H]1C(=O)NC(C)(C)C)[C@H](Cc1ccccc1)NC(=O)[C@H](CC(N)=O)NC(=O)c1ccc2ccccc2n1

solubility [22]: 300 µg/mL
solubility [23]: 54000 µg/mL
solubility [24]: 54000 µg/mL
solubility thermodynamic [21]: 400 µM
SMILES: CC(C)CN(C[C@@H](OP(=O)([O-])[O-])[C@H](Cc1ccccc1)NC(=O)O[C@H]1CCOC1)S(=O)(=O)c1ccc(N)cc1.[Ca+2] [FOSAMPRENAVIR CALCIUM]

half-life [25]: 4 min
SMILES: Cc1cccc(C)c1OCC(=O)N[C@@H](Cc1ccccc1)[C@H](O)C(=O)N1CSC(C)(C)[C@H]1C(=O)NC(C)(C)C

Drug metabolism [26]: 2%
Drug metabolism [27]: 2%
SMILES: CC(C)CN(C[C@@H](O)[C@H](Cc1ccccc1)NC(=O)O[C@H]1CO[C@H]2OCC[C@H]21)S(=O)(=O)c1ccc(CNC(=O)[C@@H]2CCCN2C(=O)[C@@H](N)C(C)C)cc1

efflux ratio (P-glycoprotein): 1.2
half-life [5]: 0.933 h
SMILES: CC(C)[C@@H](N)C(=O)O[C@H](CN1C[C@H]2CCCC[C@H]2C[C@H]1C(=O)NC(C)(C)C)[C@H](Cc1ccccc1)NC(=O)[C@H](CC(N)=O)NC(=O)c1ccc2ccccc2n1
